In ChEMBL document CHEMBL3351435, “New pyrrole derivatives with potent tubulin polymerization inhibiting activity as anticancer agents including hedgehog-dependent cancer” (J Med Chem, 2014):
The source made the active and inactive calls. The rule behind the calls is not given here.

Key:
[1] = Cmax in CD-1 mouse at 15 mg/kg, po; assay type: ADME, organism-based; set-up: dose 15 mg/kg, route oral; details: in vivo
HeLa [2] = assay: Cell cycle arrest in human HeLa cells assessed as mitotic rounded-up phenotype at 20 nM by light microscopy; assay type: functional, cell-based
[3] = Mean residence time in CD-1 mouse at 5 mg/kg, iv; assay type: ADME, organism-based; set-up: dose 5 mg/kg, route intravenous; details: in vivo
CYP1A2 = target: T1, CYP1A2 (Homo sapiens, UniProt P05177); assay: Inhibition of human CYP1A2 using furafylline as substrate at 1 uM; assay type: ADME; details: probe furafylline
T1 sequence (P05177 whole entry): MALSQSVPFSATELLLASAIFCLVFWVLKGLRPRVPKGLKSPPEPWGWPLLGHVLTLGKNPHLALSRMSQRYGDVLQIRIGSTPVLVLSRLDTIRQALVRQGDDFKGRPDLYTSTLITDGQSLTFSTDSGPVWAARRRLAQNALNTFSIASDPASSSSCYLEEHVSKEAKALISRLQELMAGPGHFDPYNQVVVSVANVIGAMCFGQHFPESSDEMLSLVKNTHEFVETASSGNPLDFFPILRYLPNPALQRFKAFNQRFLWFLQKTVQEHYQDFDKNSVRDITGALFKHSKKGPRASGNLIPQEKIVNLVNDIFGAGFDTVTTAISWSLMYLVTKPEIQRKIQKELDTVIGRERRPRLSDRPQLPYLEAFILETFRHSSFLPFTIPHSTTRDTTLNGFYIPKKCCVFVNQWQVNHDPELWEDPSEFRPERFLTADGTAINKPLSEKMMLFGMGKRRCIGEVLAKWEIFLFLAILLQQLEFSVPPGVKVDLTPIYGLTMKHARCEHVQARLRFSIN

K562 [4] = assay: Cytotoxicity against human K562 cells assessed as growth inhibition after 96 hrs by Giemsa staining-based light microscopy; assay type: functional, cell-based; details: K562, 96 h
[5] = Clearance in CD-1 mouse at 5 mg/kg, iv; assay type: ADME, organism-based; set-up: dose 5 mg/kg, route intravenous; details: in vivo
[6] = Cell cycle arrest in human PC3 cells assessed as accumulation at G2/M phase at 500 nM after 24 hrs by propidium iodide staining-based flow cytometry; assay type: functional; details: PC-3
A549 = assay: Cytotoxicity against human A549 cells assessed as growth inhibition after 48 hrs by MTT method; assay type: functional, cell-based; details: A549, 48 h
[7] = Elimination half life in CD-1 mouse at 15 mg/kg, po; assay type: ADME, organism-based; set-up: dose 15 mg/kg, route oral; details: in vivo, read-out: beta t1/2
CYP3A4 = CYP3A4 (Homo sapiens, UniProt P08684); assay: Inhibition of human CYP3A4 using ketoconazole as substrate at 1 uM; assay type: ADME; details: probe ketoconazole
HepG2 [8] = assay: Cell cycle arrest in human HepG2 cells at 500 to 2000 nM incubated for 24 hrs followed by compound washout measured after 24 hrs; assay type: functional, cell-based
Mus musculus [9] = assay: Tlast in CD-1 mouse at 15 mg/kg, po; assay type: ADME, organism-based; set-up: dose 15 mg/kg, route oral; details: in vivo
K562 [10] = assay: Cell cycle arrest in human K562 cells assessed as mitotic index at 10 times IC50 (reference value: […] +/- […]%); assay type: functional
CYP2C19 = CYP2C19 (Homo sapiens, UniProt P33261); assay: Inhibition of human CYP2C19 using tranylcypromine as substrate at 1 uM; assay type: ADME; details: probe tranylcypromine
Mus musculus [11] = assay: Tlast in CD-1 mouse at 5 mg/kg, iv; assay type: ADME, organism-based; set-up: dose 5 mg/kg, route intravenous; details: in vivo
RD [12] = assay: Cell cycle arrest in human RD cells at 500 nM incubated for 24 hrs followed by compound washout measured after 24 hrs; assay type: functional, cell-based
[13] = Cytotoxicity against human MESSA/DX5 cells assessed as growth inhibition after 72 hrs by CellTitre-Glo assay; assay type: functional, cell-based; details: MES-SA/Dx5, 72 h
HeLa [14] = assay: Induction of apoptosis in human HeLa cells assessed as failure of MT elongation at 20 nM by immunofluorescence analysis; assay type: functional, cell-based
HeLa [15] = assay: Cytotoxicity against human HeLa cells assessed as growth inhibition after 48 hrs by MTT method; assay type: functional, cell-based
CYP2C9 = CYP2C9 (Homo sapiens, UniProt P11712); assay: Inhibition of human CYP2C9 using sulfaphenazole as substrate at 1 uM; assay type: ADME; details: probe sulfaphenazole
[16] = Volume of distribution at steady state in CD-1 mouse at 5 mg/kg, iv; assay type: ADME, organism-based; set-up: dose 5 mg/kg, route intravenous; details: in vivo, read-out: Vdss
RD [17] = assay: Cell cycle arrest in human RD cells assessed as rounded cells at 500 nM after 24 hrs by propidium iodide staining-based flow cytometry; assay type: functional
RD [18] = assay: Cytotoxicity against human RD cells assessed as growth inhibition after 48 hrs by MTT method; assay type: functional, cell-based
Mus musculus [19] = assay: Clast in CD-1 mouse at 5 mg/kg, iv; assay type: ADME, organism-based; set-up: dose 5 mg/kg, route intravenous; details: in vivo
RD [20] = assay: Cell cycle arrest in human RD cells assessed as accumulation at G2/M phase at 500 nM after 24 hrs by propidium iodide staining-based flow cytometry; assay type: functional
[21] = Cytotoxicity against human MESSA cells assessed as growth inhibition after 72 hrs by CellTitre-Glo assay; assay type: functional, cell-based; details: MES-SA
Mus musculus [22] = assay: Oral bioavailability (last) in CD-1 mouse at 15 mg/kg; assay type: ADME, organism-based; details: in vivo
HeLa [23] = assay: Cell cycle arrest in human HeLa cells assessed as accumulation at G2/M phase at 100 nM by propidium iodide staining-based flow cytometry; assay type: functional
MCF7 = assay: Cytotoxicity against human MCF7 cells after 96 hrs by Giemsa staining-based light microscopy; assay type: functional, cell-based; details: MCF7, 96 h
[24] = AUC infinity in CD-1 mouse at 5 mg/kg, iv; assay type: ADME, organism-based; set-up: time infinity, dose 5 mg/kg, route intravenous; details: plasma
RD [25] = assay: Induction of apoptosis in human RD cells at 500 to 2000 nM after 48 hrs by annexin-V/propidium iodide staining-based flow cytometry; assay type: functional, cell-based
[26] = Cytotoxicity against human D283 cells; assay type: functional, cell-based
HepG2 [27] = assay: Induction of apoptosis in human HepG2 cells at 500 to 2000 nM after 48 hrs by annexin-V/propidium iodide staining-based flow cytometry; assay type: functional, cell-based
Mus musculus [28] = assay: AUC (0 to 480 mins) in CD-1 mouse at 15 mg/kg, po; assay type: ADME, organism-based, Plasma; set-up: time < 8 hr, dose 15 mg/kg, route oral; details: in vivo, 8 h
HeLa [29] = assay: Cell cycle arrest in human HeLa cells assessed as mitotic rounded-up phenotype at 100 nM by light microscopy; assay type: functional, cell-based
[30] = Cell cycle arrest in human PC3 cells assessed as rounded cells at 500 nM after 24 hrs by propidium iodide staining-based flow cytometry; assay type: functional; details: PC-3
CYP2D6 = CYP2D6 (Homo sapiens, UniProt P10635); assay: Inhibition of human CYP2D6 using quinidine as substrate at 1 uM; assay type: ADME; details: probe quinidine
NCI/ADR-RES = assay: Cytotoxicity against human NCI/ADR-RES cells assessed as growth inhibition after 96 hrs by Giemsa staining-based light microscopy; assay type: functional, cell-based
Tubulin (Homo sapiens) = Tubulin (Homo sapiens) (UniProt P68371+Q9H4B7+P0DPH7+P68366+Q13509+Q71U36+P04350+Q3ZCM7+P07437+P68363+Q9BQE3+Q6PEY2+Q13885+Q9BVA1+Q9BUF5); assay: Displacement of [3H]colchicine from tubulin (unknown origin) at 5 uM after 10 mins; assay type: protein-complex assay
HeLa [31] = assay: Cell cycle arrest in human HeLa cells assessed as reduction in mitotic slippage at 100 nM by annexin V staining-based immunofluorescence microscopy; assay type: functional
HeLa [32] = assay: Induction of apoptosis in human HeLa cells assessed as blockage of mitotic progression at 20 to 100 nM by annexin V staining-based immunofluorescence microscopy; assay type: functional, cell-based

Sequence of CYP2C19 (P33261 whole entry): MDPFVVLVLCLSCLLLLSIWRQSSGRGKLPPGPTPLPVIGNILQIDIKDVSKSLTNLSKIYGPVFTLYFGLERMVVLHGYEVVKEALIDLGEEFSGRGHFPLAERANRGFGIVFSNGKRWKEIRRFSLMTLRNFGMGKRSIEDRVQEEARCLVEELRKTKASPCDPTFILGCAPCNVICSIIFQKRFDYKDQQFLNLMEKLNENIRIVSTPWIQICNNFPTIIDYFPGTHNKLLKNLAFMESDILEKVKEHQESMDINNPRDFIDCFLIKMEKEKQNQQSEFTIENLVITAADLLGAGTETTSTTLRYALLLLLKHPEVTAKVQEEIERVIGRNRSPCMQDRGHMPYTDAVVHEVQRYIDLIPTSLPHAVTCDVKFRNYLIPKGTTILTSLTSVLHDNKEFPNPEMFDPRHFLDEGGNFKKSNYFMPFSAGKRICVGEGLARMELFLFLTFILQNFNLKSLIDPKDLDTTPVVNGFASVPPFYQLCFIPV
Sequence of CYP2D6 (P10635 whole entry): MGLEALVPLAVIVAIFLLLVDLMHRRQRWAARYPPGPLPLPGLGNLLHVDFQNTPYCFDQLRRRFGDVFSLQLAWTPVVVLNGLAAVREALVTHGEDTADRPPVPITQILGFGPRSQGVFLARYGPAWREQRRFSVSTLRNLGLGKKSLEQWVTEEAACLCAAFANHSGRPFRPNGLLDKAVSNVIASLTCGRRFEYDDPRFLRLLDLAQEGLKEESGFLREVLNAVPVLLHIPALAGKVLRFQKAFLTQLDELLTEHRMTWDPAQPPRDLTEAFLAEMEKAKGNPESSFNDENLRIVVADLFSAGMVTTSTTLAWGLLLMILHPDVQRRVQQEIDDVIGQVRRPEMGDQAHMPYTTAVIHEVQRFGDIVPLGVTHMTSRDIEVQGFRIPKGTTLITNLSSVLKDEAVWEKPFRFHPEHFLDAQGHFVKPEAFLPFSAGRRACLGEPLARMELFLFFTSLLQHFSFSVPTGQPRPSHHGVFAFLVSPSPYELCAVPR
Sequence of CYP2C9 (P11712 whole entry): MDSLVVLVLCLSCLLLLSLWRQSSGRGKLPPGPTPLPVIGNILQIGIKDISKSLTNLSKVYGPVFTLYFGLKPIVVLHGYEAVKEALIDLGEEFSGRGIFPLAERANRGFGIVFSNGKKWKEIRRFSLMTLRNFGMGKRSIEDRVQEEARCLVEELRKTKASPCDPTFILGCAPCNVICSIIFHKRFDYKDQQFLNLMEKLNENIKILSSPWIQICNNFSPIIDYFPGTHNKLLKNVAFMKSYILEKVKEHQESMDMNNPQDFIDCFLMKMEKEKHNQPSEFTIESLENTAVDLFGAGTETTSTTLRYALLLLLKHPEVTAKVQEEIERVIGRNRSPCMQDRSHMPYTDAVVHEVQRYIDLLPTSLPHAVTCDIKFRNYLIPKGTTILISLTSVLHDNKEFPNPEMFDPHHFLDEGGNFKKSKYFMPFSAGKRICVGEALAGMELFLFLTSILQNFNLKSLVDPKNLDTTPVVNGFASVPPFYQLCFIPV
Sequence of CYP3A4 (P08684 whole entry): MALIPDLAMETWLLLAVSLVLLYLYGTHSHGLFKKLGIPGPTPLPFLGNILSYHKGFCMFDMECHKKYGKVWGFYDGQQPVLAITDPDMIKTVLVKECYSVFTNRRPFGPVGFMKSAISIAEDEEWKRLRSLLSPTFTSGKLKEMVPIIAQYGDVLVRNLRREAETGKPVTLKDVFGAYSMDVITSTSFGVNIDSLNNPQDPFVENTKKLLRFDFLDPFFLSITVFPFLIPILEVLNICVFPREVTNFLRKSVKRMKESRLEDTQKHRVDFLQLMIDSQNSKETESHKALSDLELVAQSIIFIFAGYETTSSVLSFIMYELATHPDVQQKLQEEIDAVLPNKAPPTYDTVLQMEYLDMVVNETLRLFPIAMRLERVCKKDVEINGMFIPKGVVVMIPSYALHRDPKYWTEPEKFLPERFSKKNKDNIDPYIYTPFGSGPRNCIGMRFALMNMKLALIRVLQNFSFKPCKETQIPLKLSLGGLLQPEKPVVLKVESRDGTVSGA

With `COc1cc(C(=O)c2ccn(-c3cccc(N)c3)c2)cc(OC)c1OC` the Cmax [1] was 1770 ng/mL, the Activity (HeLa [2]) was “Active” and the MRT [3] was 0.517 h. It also gave an inhibition at 1 µM (CYP1A2) of 66.8%, an IC50 (K562 [4]) of 20 nM and a clearance [5] of 80.8 mL/min/kg. For the same molecule, the Activity [6] was “Active”, the IC50 (A549) was 10 nM and the half-life [7] was 2.98 h. The inhibition at 1 µM (CYP3A4) was 12.2%, the Activity (HepG2 [8]) was “inactive” and the Tlast (Mus musculus [9]) was 480 min. The Activity (K562 [10]) was 60%, the inhibition at 1 µM (CYP2C19) was 72.6% and the Tlast (Mus musculus [11]) was 480 min. For the same molecule, the Activity (RD [12]) was “Active”, the IC50 [13] was 4.6 nM and the Activity (HeLa [14]) was “Active”. The IC50 (HeLa [15]) was 30 nM, the inhibition at 1 µM (CYP2C9) was 28.9% and the Vd [16] was 2.7 L/kg. The Activity (RD [17]) was “Active”, the IC50 (RD [18]) was 95.3 nM and the Clast (Mus musculus [19]) was 2.3 ng/mL. The Activity (RD [20]) was “Active”, the IC50 [21] was 1.8 nM and the F (Mus musculus [22]) was 49%. For the same molecule, the Activity (HeLa [23]) was “Active”, the IC50 (MCF7) was 15 nM and the AUC(0-inf) [24] was 1030 ng·h/mL. The Activity (RD [25]) was “Active”, the IC50 [26] was 580 nM and the Activity (HepG2 [27]) was “Active”. For the same molecule, the AUC (Mus musculus [28]) was 79441 ng·min/mL, the Activity (HeLa [29]) was “Active” and the Activity [30] was “Active”. It also gave an inhibition at 1 µM (CYP2D6) of under 5%, an IC50 (NCI/ADR-RES) of 1 nM and an inhibition (Tubulin (Homo sapiens)) of 86%. The Activity (HeLa [31]) was “inactive” and the Activity (HeLa [32]) was “Active”.
